According to patent US9585380B2, “SSAT mRNA translation repression and activation” (TEMPLE UNIVERSITY—Of The Commonwealth System of Higher …, priority 2011, dated 2017):
Where a name gives a salt, the structure may show the parent alone.

What follows are molecules tested on SSAT translation (assay: Drug screening with mutant 6 SSAT-luciferase reporter construct in transfected HEK 293T cells). Details: Homo sapiens, 12 h; procedure of Example 6 (10 μM, mutant 6 construct, HEK 293T), increase over basal SSAT translation.
Assay type: cell-based, human
Description: The mutant 6 chimeric construct of Example 4 (A424C; A426C; FIG. 18G) cloned into pLEX MCS plasmid was utilized in drug screening as follows. HEK 293T cells (ATCC) were grown in DMEM supplemented with 10% fetal bovine serum and antibiotics. The HEK 293T cells were transfected with the mutant 6/pLEX MCS plasmid using HTS-Jetpei transfection reagent (Polyplus Transfection, Illkirch, France). Transfected HEK293T cells were incubated overnight at 37° C. After 24 hours, cells transfected cells in 96-well plates used for screening were treated with 10 μM of test compound from a compound library in DMSO. Untreated cells were used as the negative control, and cells treated with 10 μM DENSPM comprised a positive control. The luciferase signaling in each plate was independently analyzed using a Glomax Luminometer (Promega Corp.) by comparing the signals against the controls twelve hours after treatment.
The procedure of Example 6 was followed, screening for compounds that increase SSAT translation. The agents listed in Table 11 were identified as increasing SSAT translation by at least 35% over basal SSAT translation.

Q: With Nc1nc(NC2CC2)c2ncn([C@H]3C=C[C@@H](CO)C3)c2n1 [Abacavir Sulfate] as the molecule, how does the activation at 10 µM read?
A: 36%

Q: With CC(=O)OCC(=O)[C@@]12N=C(C)O[C@@H]1C[C@H]1[C@@H]3CCC4=CC(=O)C=C[C@]4(C)[C@H]3[C@@H](O)C[C@@]12C [Deflazacort] as the molecule, how does the activation at 10 µM read?
A: 37%

Q: CN(C)CCOC(C)(c1ccccc1)c1ccccn1 (centres unmarked) [Doxylamine succinate] was tested. Which activation at 10 µM did it give?
A: 62%

Q: Which activation at 10 µM does the source give for C[C@]12CC[C@H]3C(=CCc4cc(O)ccc43)[C@@H]1CCC2=O [Equilin] here?
A: 36%

Q: With Nc1[nH]c(=O)ncc1F [Flucytosine] as the molecule, how does the activation at 10 µM read?
A: 35%

Q: How did the activation at 10 µM turn out when COc1ccc2cc(CCC(C)=O)ccc2c1 [Nabumetone] was run?
A: 59%

Q: With N=C(N)c1ccc(OCCCCCOc2ccc(C(=N)N)cc2)cc1 [Pentamidine isethionate] as the molecule, how does the activation at 10 µM read?
A: 36%

Q: Which activation at 10 µM does the source give for Nc1ccc(/N=N/c2ccccc2)c(N)n1 [Phenazopyridine hydrochloride] here?
A: 41%

Q: With CCc1ccc(CCOc2ccc(CC3SC(=O)NC3=O)cc2)nc1 (centres unmarked) [Pioglitazone] as the molecule, how does the activation at 10 µM read?
A: 50%

Q: With NCCNCCNCCNCCN [Tetraethylenepentamine pentahydrochloride] as the molecule, how does the activation at 10 µM read?
A: 60%

Q: How did the activation at 10 µM turn out when c1ccc2[nH]c(-c3cscn3)nc2c1 [Tiabendazole] was run?
A: 39%

Same assay, conditions: Homo sapiens; 10 μM test compound, HEK 293T cells transfected with mutant 6 construct, luciferase signal twelve hours after treatment

Q: CC(C)(C)c1ccc(C(O)CCCN2CCC(C(O)(c3ccccc3)c3ccccc3)CC2)cc1 (racemic) [Terfenadine, (RS)-1-(4-tert-butylphenyl)-4-{4-[hydroxy(diphenyl)methyl]piperidin-1-yl}-butan-1-ol] was tested. Which inhibition at 10 µM did it give?
A: 100%

Q: With CCCCCCCCN[C@H](C)[C@@H](O)c1ccc(SC(C)C)cc1 (relative stereo) [Suloctidil, (R*,S*)-4-((1-methylethyl)thio)-alpha-(1-(octylamino)ethyl)benzene-methanol] as the molecule, how does the inhibition at 10 µM read?
A: 99.9%

Q: With C[C@H]1OC(OC2[C@@H](O)C[C@H](OC3[C@@H](O)CC(O[C@H]4CC[C@@]5(C)[C@H](CC[C@@H]6[C@@H]5C[C@@H](O)[C@]5(C)[C@@H](C7=CC(=O)OC7)CC[C@]65O)C4)O[C@@H]3C)O[C@@H]2C)C[C@H](O)C1O (stereo in doubt) [Digoxin, 4-[(3S,5R,8R,9S,10S,12R,13S,14S)-3-[(2S,4S,5R,6R)-5-[(2S,4S,5R,6R)-5-[(2S,4S,5R,6R)-4,5-dihydroxy-6-methyl-oxan-2-yl]oxy-4-hydroxy-6-methyl-oxan-2-yl]oxy-4-hydroxy-6-methyl-oxan-2-yl]oxy-12,14-dihydroxy-10,13-dimethyl-1,2,3,4,5,6,7,8,9,11,12,15,16,17-tetradecahydrocyclopenta[a]phenanthren-17-yl]-5H-furan-2-one] as the molecule, how does the inhibition at 10 µM read?
A: 93.9%

Q: CCCCC(CC)CNC(=N)NC(=N)NCCCCCCNC(=N)NC(=N)NCC(CC)CCCC (centres unmarked) [Alexidine dihydrochloride, 1,1′-Hexamethylene-bis[5-(2-ethylhexyl)biguanide] dihydrochloride] was tested. Which inhibition at 10 µM did it give?
A: 99.6%

Q: Which inhibition at 10 µM does the source give for O=C1CCc2ccc(OCCCCN3CCN(c4cccc(Cl)c4Cl)CC3)cc2N1 [Aripiprazole, 7-{4-[4-(2,3-dichlorophenyl)piperazin-1-yl]butoxy}-3,4-dihydroquinolin-2(1H)-one] here?
A: 92.7%

Q: How did the inhibition at 10 µM turn out when COc1ccc(CCN2CCC(Nc3nc4ccccc4n3Cc3ccc(F)cc3)CC2)cc1 [Astemizole, 1-[(4-fluorophenyl)methyl]-N-[1-[2-(4-methoxyphenyl)ethyl]-4-piperidyl]benzoimidazol-2-amine] was run?
A: 86.2%

Q: For CC=C(C)C(=O)O[C@H]1[C@H](OC(C)=O)[C@@]2(CO)C(CC1(C)C)C1=CCC3[C@@]4(C)CC[C@H](O[C@@H]5O[C@H](C(=O)O)[C@@H](O[C@@H]6O[C@H](CO)[C@@H](O)[C@H](O)[C@H]6O)[C@H](O)[C@H]5O[C@@H]5O[C@H](CO)[C@@H](O)[C@H](O)[C@H]5O)[C@](C)(CO)C4CC[C@@]3(C)[C@]1(C)C[C@H]2O (stereo partly drawn) [Beta-Escin, (3α,5β,14β,16α,21α,22α)-22-acetoxy-16,23,28-trihydroxy-1-{[(2Z)-2-methylbut-2-enoyl]oxy}olean-12-en-3-yl-α-D-gulopyranosyl-(1→2)-[a-L-mannopyranosyl-(1→4)]-β-D-allopyranosiduronic acid], which inhibition at 10 µM is on record?
A: 88.7%

Q: With O=C1C=CC(=O)c2c1ccc1c2ccc2ccccc21 [Chrysene-1,4-quinone, chrysene-1,4-dione] as the molecule, how does the inhibition at 10 µM read?
A: 97.3%

Q: How did the inhibition at 10 µM turn out when C[C@]12CC[C@H](O)C[C@H]1CC[C@@H]1[C@@H]2CC[C@]2(C)[C@@H](C3=CC(=O)OC3)CC[C@]12O [Digitoxigenin, 3-β,14-dihydroxy-5-β,14-β-card-20(22)-enolide] was run?
A: 93.4%

Q: O=C1NCN(c2ccccc2)C12CCN(CCCC(c1ccc(F)cc1)c1ccc(F)cc1)CC2 [Fluspirilen, 8-[4,4-Bis(4-fluorphenyl)butyl]-1-phenyl-1,3,8-triazaspiro[4,5] decan-4-on] was tested. Which inhibition at 10 µM did it give?
A: 94.7%

Q: CC(=O)O[C@H]1C[C@H](OC2[C@@H](O)C[C@H](O[C@H]3[C@@H](O)C[C@H](O[C@H]4CC[C@@]5(C)[C@H](CC[C@@H]6[C@@H]5C[C@@H](O)[C@]5(C)[C@@H](C7=CC(=O)OC7)CC[C@]65O)C4)O[C@@H]3C)O[C@@H]2C)O[C@H](C)[C@H]1O[C@@H]1O[C@H](CO)[C@@H](O)[C@H](O)[C@H]1O (stereo partly drawn) [Lanatoside C, (3β,5β,12β)-3-{[β-D-glucopyranosyl-(1→4)-3-O-acetyl-2,6-dideoxy-β-D-ribo-hexopyranosyl-(1→4)-2,6-dideoxy-β-D-ribo-hexopyranosyl-(1→4)-2,6-dideoxy-β-D-ribo-hexopyranosyl]oxy}-12,14-dihydroxycard-20(22)-enolide] was tested. Which inhibition at 10 µM did it give?
A: 91.8%

Q: C=C1C(=O)O[C@H]2[C@H]1CC/C(C)=C/CC[C@@]1(C)O[C@@H]21 [Parthenolide, (1aR,7aS,10aS,10bS)-1a,5-dimethyl-8-methylene-2,3,6,7,7a,8,10a,10b-octahydrooxireno[9,10]cyclodeca [1,2-b]furan-9(1aH)-one] was tested. Which inhibition at 10 µM did it give?
A: 99.2%

Q: How did the inhibition at 10 µM turn out when C[C@@H]1O[C@@H](O[C@@H]2C=C3CC[C@@H]4[C@H](CC[C@]5(C)[C@@H](c6ccc(=O)oc6)CC[C@]45O)[C@@]3(C)CC2)[C@H](O)[C@H](O)[C@H]1O [Proscillaridin A, (3β)-3-[(6-deoxy-α-L-mannopyranosyl)oxy]-14-hydroxybufa-4,20,22-trienolide] was run?
A: 94%

Q: With Cc1cc(/C=C/c2ccc3cc(N(C)C)ccc3[n+]2C)c(C)n1-c1ccccc1 [Pyrvinium pamoate, 2-[(E)-2-(2,5-dimethyl-1-phenylpyrrol-3-yl)ethenyl]-N,N,1-trimethylquinolin-1-ium-6-amine] as the molecule, how does the inhibition at 10 µM read?
A: 92.5%

Q: With O=C1NCCN1CCN1CCC(c2cn(-c3ccc(F)cc3)c3ccc(Cl)cc23)CC1 [Sertindole, 1-[2-[4-[5-chloro-1-(4-fluorophenyl)-indol-3-yl]-1-piperidyl]ethyl]-imidazolidin-2-one] as the molecule, how does the inhibition at 10 µM read?
A: 99.8%

Q: For CCCCCCCCCCCCCCCC[N+](C)(C)CCN(Cc1ccc(OC)cc1)c1ncccn1 [Thonzonium bromide, N-{2-[(4-Methoxybenzyl)(pyrimidin-2-yl)amino]ethyl}-N,N-dimethylhexadecan-1-aminium bromide], which inhibition at 10 µM is on record?
A: 99%

Same assay, conditions: procedure of Example 6 (10 μM, mutant 6 construct, HEK 293T), increase over basal SSAT translation

Q: Which “% Increase in SSAT Translation” value does the source give for Cc1c(O)c(=O)n(-c2ccccc2)n1C [Antipyrine, 4-hydroxy] here?
A: 41%

Q: CCCCNc1ccc(C(=O)OCCN(C)C)cc1.Cl [Tetracaïne hydrochloride] was tested. Which “% Increase in SSAT Translation” value did it give?
A: 40%
